The text below walks through data of patent publication US10759795B2, “Aza-A-ring indenoisoquinoline topoisomerase I poisons” (Purdue Research Foundation, priority 2016, dated 2020).

Read-outs that look alike come from different tables or passages of the source.

Series [1] addresses T1, Top1 (Homo sapiens, UniProt P11387).
T1 sequence (P11387 1-765): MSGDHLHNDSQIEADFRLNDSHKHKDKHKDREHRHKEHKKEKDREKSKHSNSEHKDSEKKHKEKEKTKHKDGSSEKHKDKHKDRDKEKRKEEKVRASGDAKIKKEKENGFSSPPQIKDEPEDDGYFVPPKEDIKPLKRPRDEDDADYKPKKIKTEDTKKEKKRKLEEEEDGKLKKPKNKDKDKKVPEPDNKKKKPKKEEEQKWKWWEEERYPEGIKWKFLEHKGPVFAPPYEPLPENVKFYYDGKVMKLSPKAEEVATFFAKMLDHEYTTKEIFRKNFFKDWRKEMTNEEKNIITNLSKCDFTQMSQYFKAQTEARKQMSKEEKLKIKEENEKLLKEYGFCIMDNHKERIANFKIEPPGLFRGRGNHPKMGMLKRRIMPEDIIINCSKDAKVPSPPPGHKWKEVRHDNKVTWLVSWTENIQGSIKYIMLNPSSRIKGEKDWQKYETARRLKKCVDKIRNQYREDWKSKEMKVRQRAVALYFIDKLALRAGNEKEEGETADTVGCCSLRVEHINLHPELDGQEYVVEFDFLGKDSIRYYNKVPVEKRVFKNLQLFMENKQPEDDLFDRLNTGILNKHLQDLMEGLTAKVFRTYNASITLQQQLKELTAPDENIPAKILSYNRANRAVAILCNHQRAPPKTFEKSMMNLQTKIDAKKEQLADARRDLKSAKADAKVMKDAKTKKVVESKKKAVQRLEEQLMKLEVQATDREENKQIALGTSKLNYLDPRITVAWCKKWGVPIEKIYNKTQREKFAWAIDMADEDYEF
The following applies: background statement; cited from earlier work.

Another series concerns Renal, SN12C. Description: NCI-60 five-dose cytotoxicity assay, SN12C. The following applies: Homo sapiens, read-out: Cytotoxicity GI50, Renal, SN12C. The protocol:
(§1) The new indenoisoquinolines were evaluated for cancer cell growth inhibitory activities. The National Cancer Institute's NCI-60 cytotoxicity assay measures the ability of test agents to inhibit the growth of approximately 60 different cancer cell lines. In the initial single-dose assay, cells are treated with a 10 μM dose of test agent. The growth of treated cells versus untreated cells is then compared. If a test agent induces a sufficiently low mean growth percent, it is promoted to five-dose testing to determine a mean graph midpoint (MGM) GI50 value. In five-dose testing, cells are treated with test agent concentrations ranging from 10^−8 to 10^−4 M. The concentration required to achieve 50% growth inhibition in a particular cell line is calculated. In situations in which this value is greater than 100 μM or less than 0.01 μM, it is recorded as 100 μM and 0.01 μM, respectively. The values for each of the tested cell lines are averaged to obtain a mean graph midpoint (MGM) GI50 value. MGM GI50 values are often, but not always, determined from two separate rounds (Table 1).

For series [2], the system named is approximately 60 different cancer cell lines. As to the kind of experiment: NCI-60 five-dose cytotoxicity assay, mean graph midpoint. It is filed as cell-based. To be noted: Homo sapiens, read-out: MGM: mean graph midpoint of growth inhibition (GI50). The protocol: as §1
The subject of a further series is Colon, HCT-116. As to the kind of experiment: NCI-60 five-dose cytotoxicity assay, HCT-116. The following applies: Homo sapiens, HCT-116, read-out: Cytotoxicity GI50, Colon, HCT-116. The protocol: as §1
In the next series the test system is Breast, MCF7. Description: NCI-60 five-dose cytotoxicity assay, MCF7. To be noted: Homo sapiens, MCF7, read-out: Cytotoxicity GI50, Breast, MCF7. The protocol: as §1
Series [3] addresses T1, Top1. Description: Top1-mediated DNA cleavage assay. It is filed as biochemical. To be noted: score based on the activity of 1 μM 1 (camptothecin); tested at 0.1, 1, 10, 100 μM. The protocol: Approximately 2 nM radiolabeled DNA substrate was incubated with recombinant Top in 20 μL of reaction buffer [10 mM Tris-HCl (pH 7.5), 50 mM KCl, 5 mM MgCl2, 0.1 mM EDTA, and 15 μg/mL BSA] at 25° C. for 20 min in the presence of various concentrations of test compounds. […] Aliquots of each reaction mixture were subjected to 20% denaturing PAGE.
The Top1-mediated DNA cleavage assay was used to measure Top1 inhibitory activity. This assay measures the ability of the compound to stabilize DNA cleavage in a 3′-[^32P]-labeled DNA substrate via Top1 poisoning.

In the next series the target is T2, recombinant human TDP2 (Homo sapiens, UniProt O95551).
T2 sequence (O95551 1-362): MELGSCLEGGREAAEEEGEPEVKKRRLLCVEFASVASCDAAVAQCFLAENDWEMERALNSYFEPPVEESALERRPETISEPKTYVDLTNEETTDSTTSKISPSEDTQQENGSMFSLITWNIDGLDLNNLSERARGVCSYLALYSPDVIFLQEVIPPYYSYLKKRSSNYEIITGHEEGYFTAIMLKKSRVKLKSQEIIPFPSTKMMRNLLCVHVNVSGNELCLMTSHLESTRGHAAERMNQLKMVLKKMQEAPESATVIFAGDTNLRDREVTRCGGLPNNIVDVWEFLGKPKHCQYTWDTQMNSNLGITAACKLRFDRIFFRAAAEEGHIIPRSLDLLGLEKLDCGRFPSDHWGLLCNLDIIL
As to the kind of experiment: Recombinant TDP2 assay. The format is biochemical. The following applies: recombinant human TDP2, gel-based; read-out: TDP2: IC50 values for the inhibition of TDP2. An excerpt: Reactions were terminated and treated similarly to recombinant TDP1 reactions.
TDP2, as opposed to TDP1, cleaves the phosphotyrosyl linkage in 5′-phosphotyrosyl-DNA oligonucleotides.

A further series deals with Ovarian, OVCAR-3. Description: NCI-60 five-dose cytotoxicity assay, OVCAR-3. The following applies: Homo sapiens, OVCAR-3, read-out: Cytotoxicity GI50, Ovarian, OVCAR-3. The method, then: as §1
The next series relates to Lung, HOP-62. As to the kind of experiment: NCI-60 five-dose cytotoxicity assay, HOP-62. To be noted: Homo sapiens, HOP-62, read-out: Cytotoxicity GI50, Lung, HOP-62. The method, then: as §1
The subject of series [4] is 60 human cancer cell lines. Description: NCI-60 single-dose cytotoxicity assay. It is filed as cell-based. To be noted: mean-graph midpoint of percent growth of 60 human cancer cell lines, 10 μM drug, 48 h, relative to no-drug control and time zero. The protocol:
as §1

In the next series the test system is Melanoma UACC-62. As to the kind of experiment: NCI-60 five-dose cytotoxicity assay, UACC-62. To be noted: Homo sapiens, UACC-62, read-out: Cytotoxicity GI50, Melanoma UACC-62. The method, then:
as §1

The target of a further series is recombinant TDP1 (Homo sapiens, UniProt Q9NUW8). Description: Recombinant TDP1 assay. To be noted: recombinant TDP1, gel-based; read-out: TDP1: IC50 values for the inhibition of TDP1. The format is biochemical. The method, then: A 5′-[^32P]-labeled single-stranded DNA oligonucleotide containing a 3′-phosphotyrosine (N14Y) was incubated at 1 nM with 10 pM recombinant TDP1 in the absence or presence of inhibitor for 15 min at room temperature in the LMP1 assay buffer containing 50 mM Tris HCl, pH 7.5, 80 mM KCl, 2 mM EDTA, 1 mM DTT, 40 μg/mL BSA, and 0.01% Tween-20^18. […] Gels were dried and exposed to a PhosphorImager screen (GE Healthcare). Gel images were scanned using a Typhoon 8600 (GE Healthcare), and densitometry analyses were performed using ImageQuant software (GE Healthcare).
recombinant TDP1, sequence (Q9NUW8 whole entry, species assumed): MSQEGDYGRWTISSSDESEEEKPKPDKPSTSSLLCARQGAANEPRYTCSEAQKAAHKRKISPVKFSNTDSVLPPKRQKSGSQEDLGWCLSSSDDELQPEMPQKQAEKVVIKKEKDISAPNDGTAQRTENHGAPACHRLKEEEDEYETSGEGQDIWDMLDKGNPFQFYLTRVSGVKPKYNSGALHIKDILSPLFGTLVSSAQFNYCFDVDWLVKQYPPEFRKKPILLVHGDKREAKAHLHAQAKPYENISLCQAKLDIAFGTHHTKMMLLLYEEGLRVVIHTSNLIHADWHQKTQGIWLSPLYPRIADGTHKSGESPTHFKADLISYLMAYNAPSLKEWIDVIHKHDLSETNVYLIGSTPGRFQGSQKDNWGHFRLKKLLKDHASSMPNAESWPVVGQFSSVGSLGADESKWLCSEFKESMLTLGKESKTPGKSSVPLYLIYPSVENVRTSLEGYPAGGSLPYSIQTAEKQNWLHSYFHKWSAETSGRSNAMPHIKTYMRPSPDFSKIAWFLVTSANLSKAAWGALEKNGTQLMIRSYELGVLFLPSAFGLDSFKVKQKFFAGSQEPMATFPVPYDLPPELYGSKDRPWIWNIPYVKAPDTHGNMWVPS
TDP1 is involved in the repair of DNA damage that results from the action of Top1 poisons, which induce the formation of DNA-protein adducts that include a 3′-phosphotyrosyl linkage. The TDP1 inhibition assay assesses a test agent's ability to inhibit the enzyme-induced cleavage of a 5′-^32P, 3′-phosphotyrosyl-DNA oligonucleotide, called N14Y. Cleavage of the phosphodiester bond between the 3′-phosphate and tyrosine releases […] from the DNA oligonucleotide. The enzyme-processed DNA oligonucleotide lacking its 3′-phosphotyrosyl moiety is designated N14P. A schematic representation of the assay and a representative gel are shown in FIG. 2, and the TDP1 screening results are listed in Table 1.

Another series relates to Prostate, DU-145. Description: NCI-60 five-dose cytotoxicity assay, DU-145. The following applies: Homo sapiens, DU-145, read-out: Cytotoxicity GI50, Prostate, DU-145. The method, then: as §1
The next series deals with CNS, SF-539. Description: NCI-60 five-dose cytotoxicity assay, SF-539. To be noted: Homo sapiens, CNSSF-539, read-out: Cytotoxicity GI50, CNS, SF-539. The method, then: as §1

As for `O=C1c2ccccc2-c2c1c1ccccc1c(=O)n2CCCNCCCNCCCn1c2c(c3ccccc3c1=O)C(=O)c1ccccc1-2` [Compound 5], the Top1 inhibitory activity entry at Top1 [1] is reported as “potent”.

Take `CN(C)CCCn1c2c(c3cnccc3c1=O)C(=O)c1ccccc1-2` [Compound 45, 2-Aza-5,6-dihydro-6-(3-(dimethylamino)propyl)-5,11-dioxo-indeno[1,2-c]isoquinoline]: the melting point (usually the temperature, or range, at which the solid turns liquid) fell in the range of 177 to 178 °C. Also, the GI50 (usually the concentration giving 50% growth inhibition) with Renal, SN12C was found to be 288 nM. Further, in [2] (5 dose assay, 10^−8-10^−4 M, average over tested cell lines), the concentration for 50% growth inhibition (GI50) stood at 437 nM. For the same compound, in the series on Colon, HCT-116, the GI50 was 245 nM. Besides, in the series on Breast, MCF7, the GI50 was 245 nM. The “Top 1: compound-induced DNA cleavage due to Top1 poisoning” value at Top1 [3] is “++ (++, between 50 and 75% activity)”. Further, the IC50 (as a rule, the concentration needed to halve the response being measured) at recombinant human TDP2 came out at 37000 nM. Besides, in the series on Ovarian, OVCAR-3, the 50% growth inhibitory concentration (GI50) turned out to be 1100 nM. In the series with Lung, HOP-62, the GI50 amounted to 398 nM. Also, in series [4], the activity at 10 µM was -8.83%. Also, the GI50 in the series on Melanoma UACC-62 stood at 309 nM. Moreover, on recombinant TDP1, the IC50 amounted to 63000 nM. Further, the concentration for 50% growth inhibition (GI50) in the series on Prostate, DU-145 amounted to 490 nM.

For `CC[C@@]1(O)C(=O)OCc2c1cc1n(c2=O)Cc2cc3ccccc3nc2-1` [Compound 1, camptothecin, reference compound], the GI50 in the series with Renal, SN12C is 20 nM; in the series with CNS, SF-539, 10 nM; in series [2], 40.5 nM; in the series on Colon, HCT-116, 30 nM; in the series with Breast, MCF7 it was 10 nM; in the series with Ovarian, OVCAR-3 it was 220 nM. For the same compound, the GI50 was found to be 10 nM with Lung, HOP-62; 10 nM in the series with Melanoma UACC-62; 10 nM with Prostate, DU-145.
